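Each compound was tested at five concentrations against cells in 96-well plates for 48 hours. Definition used: TGI = concentration required for complete inhibition of growth.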

These results are taken from PubChem BioAssay (NCI).

Test in all cases: NCI-60 cell line screen, 48 h
Assay [1] relates to ACHN renal.
The test system of assay [2] is BT-549 breast.
Assay [3] has as its system NCI-H226 lung.
Assay [4] relates to NCI-H460 lung.
The subject of assay [5] is OVCAR-3 ovarian.
For assay [6], the system named is OVCAR-5 ovarian.
In assay [7] the test system is SNB-19 CNS.
Assay [8] deals with U251 CNS.
The subject of assay [9] is CCRF-CEM leukemia.
Assay [10] deals with MALME-3M melanoma.

For the compound `CCOP(=O)(OCC)/C(=C\N1C(=O)CC(=O)NC1=S)C(=O)OC`, the TGI in [1], in [2], in [3], in assay [4], in assay [5] and in [6] was greater than 100 µM each time. The TGI in [7] and in assay [8] was greater than 100 µM throughout.
On to `O=C1CCC2(CC1CCSc1ccccc1)OCCO2` (stereo unspecified), for which the TGI in assay [1], in [9], in [10], in [3], in [4] and in assay [5] was greater than 100 µM throughout. The TGI in assay [6], in [7] and in assay [8] was greater than 100 µM each time.
For `CN1C/C(=C\c2ccc(Cl)cc2)C(=O)/C(=C/c2ccc(Cl)cc2)C1`, the TGI was greater than 25.3 µM in assay [1]; 1.37 µM in [9]; greater than 100 µM in [10]; 8.7 µM in [3]; 4.59 µM in assay [4]; 6.57 µM in [5]. For the same compound, the TGI in [6] was greater than 100 µM; in [7] it was greater than 100 µM; in assay [8], 2.46 µM.
As to `O=C1c2ccccc2C(=O)c2c1ccc1c2N=C(c2ccc(F)cc2)CC(c2ccc(Cl)c(Cl)c2)N1` (stereo unspecified), the TGI in assay [1] amounted to 27.8 µM; in [9], 17.7 µM; in assay [3], 65.6 µM; in [4], 43 µM; in [6] it was 28 µM; in [7] it was 25.8 µM. Besides, the TGI in assay [8] came to 24.7 µM.
Regarding `COc1ccc(Oc2nc3ccc(C(F)(F)F)cc3nc2-c2ccccc2)cc1`, the TGI in assay [1], in [9], in assay [10], in assay [3], in assay [4] and in assay [5] was greater than 100 µM in each case. Further, the TGI in assay [6], in [7] and in assay [8] was greater than 100 µM throughout.
Take `CC1(C)[C@@H](Cn2cnc3c(=O)[nH]c(N)nc32)CC[C@@]1(C)CO`: the TGI in assay [1], in [9], in assay [3], in [5], in [6] and in assay [7] was greater than 100 µM throughout. Moreover, the TGI in assay [8] was greater than 100 µM.
Consider `NC(c1ccccc1)(C(F)(F)F)P1(=O)OC(=O)c2ccccc2O1` (stereo unspecified), for which the TGI in [1], in assay [2], in assay [3], in assay [4], in [5] and in assay [6] was greater than 100 µM in each case. Moreover, the TGI in assay [7] and in assay [8] was greater than 100 µM in each case.
Turning to `CSc1nc(NC2OCC(O)C(O)C2O)c(N)c(=O)n1C` (stereo unspecified), the TGI in assay [9], in [10], in assay [3], in assay [4], in [5] and in assay [6] was greater than 100 µM throughout. In addition, the TGI in assay [7] and in assay [8] was greater than 100 µM each time.
For the compound `C=C(CC(=O)Nc1ccc(C(=O)OC)o1)C(=O)OC`, the TGI was 34.6 µM in [1]; 39.3 µM in [10]; 66.8 µM in assay [3]; greater than 100 µM in assay [4]; 35.5 µM in [6]; greater than 100 µM in assay [7]. The same compound gave a TGI in assay [8] greater than 100 µM.
For `COc1ccc(C[C@H](N)C(=O)N2C[C@H](CO)C[C@H](n3ccc(=O)[nH]c3=O)C2)cc1`, the TGI in [1], in [9], in assay [10], in [3], in assay [4] and in [5] was greater than 100 µM in each case. In addition, the TGI in [6], in assay [7] and in assay [8] was greater than 100 µM in each case.
Take `[N-]=[N+]=NC1CC(n2cc(COCC(F)(F)F)c(=O)[nH]c2=O)OC1CO` (stereo unspecified): the TGI in assay [1], in assay [9], in assay [10], in assay [4], in assay [5] and in [6] was greater than 100 µM in each case. In addition, the TGI in assay [7] and in [8] was greater than 100 µM throughout.
As to `Oc1ccc2c(c1)CC[N+]1=C2CCC2CCCC21` (stereo unspecified), the TGI in assay [1], in [3], in assay [4], in [5], in assay [6] and in [7] was greater than 100 µM in each case.
For `O=C(NNc1cn[nH]c(=O)c1Cl)/C(=C/c1ccc2c(c1)OCO2)NC(=O)c1ccccc1`, the TGI in assay [1] was greater than 100 µM; in [2] it was 49.1 µM; in [3], greater than 100 µM; in assay [4] it was greater than 100 µM; in assay [5] it was greater than 100 µM; in [6], greater than 100 µM. For the same compound, the TGI in assay [7] and in assay [8] was greater than 100 µM each time.
Turning to `CC(=O)OCc1cc(=O)n(C)c2c3c4c(cc12)c(C)cc(=O)n4CO3`, the TGI worked out at 12.7 µM in assay [9]; 2.72 µM in assay [10]; 5.5 µM in [3]; 5.74 µM in assay [4]; 7.74 µM in [5]; 20.5 µM in [6]. The TGI was determined as 72.8 µM in [7] and 26.6 µM in assay [8].
As to `O=C(OCCN1CCCCC1)C(c1ccccc1)C1(O)CCSCC1` (stereo unspecified), the TGI in assay [1], in assay [9], in assay [10], in [3], in [4] and in assay [5] was greater than 100 µM throughout. The TGI in assay [6], in assay [7] and in [8] was greater than 100 µM throughout.
`CCOC(=O)CCc1c(C(=O)OCC)[nH]c(/C=C2\NC(=O)C(C)=C2CC)c1C`: the TGI in [1] is 41.2 µM; in assay [9], greater than 100 µM; in [10] it was 41.1 µM; in assay [3] it was greater than 100 µM; in assay [4], greater than 100 µM; in assay [5], 49.6 µM. Also, the TGI in [6] stood at 86.3 µM; in [8], 33.9 µM.
In the case of `O=c1[nH]c(=O)n(COCc2ccccc2)c2ccc([N+](=O)[O-])cc12`, the TGI in assay [1], in [9], in [3], in assay [5], in [6] and in [8] was greater than 100 µM in each case.
For `CC(=O)NC1C(OCc2ccccc2)OC(CO)C(O)C1OCC(=O)NC(C)C(=O)NC(CCC(=O)NCCCCCNc1c2ccccc2nc2cccc([N+](=O)[O-])c12)C(N)=O` (stereo unspecified), the TGI was less than 0.0001 µM in assay [1]; less than 0.0001 µM in assay [2]; less than 0.0001 µM in assay [10]; 0.00254 µM in assay [3]; less than 0.0001 µM in assay [8].
Regarding `OCC(O)C1OC2CC1Nc1ccccc1N2` (stereo unspecified), the TGI in assay [1], in [9], in assay [10], in [3], in assay [4] and in assay [5] was greater than 100 µM each time. In addition, the TGI in [7] and in assay [8] was greater than 100 µM throughout.
Turning to `COc1cccc2c1C1(O)C2CCCC12OCCCO2` (stereo unspecified), the TGI in assay [1], in assay [9], in [10], in assay [3], in [4] and in [5] was greater than 100 µM each time. For the same compound, the TGI in assay [6], in assay [7] and in assay [8] was greater than 100 µM each time.
For `COc1ccccc1NC(=S)N/N=C(/C)c1ccccn1`, the TGI in [1] is 12.9 µM; in assay [9], 0.0737 µM; in assay [10], 16.7 µM; in assay [4], 3.22 µM; in [6], greater than 100 µM; in assay [7], greater than 100 µM. Moreover, in assay [8], the TGI is greater than 100 µM.
Turning to `COC(=O)c1nc(-c2ccc3c(n2)C(=O)C(N)=C(OC)C3=O)c(N)c(-c2ccc(OC)c(OC)c2O)c1C`, the TGI in assay [9] was greater than 100 µM; in assay [10] it was 1.74 µM; in assay [3], 1.41 µM; in assay [5] it was 1.66 µM; in [7], 2.22 µM; in assay [8] it was 2.37 µM.
For `S=C1C(=Nc2ccccc2)N(c2ccccc2)/C(=N\c2ccccn2)N1c1ccccc1`, the TGI was 15.9 µM in assay [1]; greater than 100 µM in assay [9]; 30.6 µM in [10]; 36.8 µM in [3]; 27 µM in assay [4]; 29.9 µM in assay [6]. Further, the TGI in assay [7] was determined as 29.9 µM; in assay [8], 29.5 µM.
On to `O=C(CN1CCCCC1)c1ccc2c(c1)Sc1ccccc1O2`, for which the TGI in assay [1] was determined as 27.7 µM; in [9], 34.4 µM; in assay [10], 33.4 µM; in assay [3] it was 29 µM; in assay [4], 29.5 µM; in assay [5] it was 29.6 µM. In addition, the TGI in assay [6] turned out to be 30 µM; in assay [7] it was 28.9 µM; in assay [8] it was 39.6 µM.
In the case of `CC(=NCCN(CCN=C(C)c1c(O)cc(C)oc1=O)CCN=C(C)c1c(O)cc(C)oc1=O)c1c(O)cc(C)oc1=O`, the TGI in assay [1], in assay [9], in assay [4], in assay [6], in [7] and in assay [8] was greater than 100 µM throughout.
Take `CC(NC1=NCCO1)c1cccc([N+](=O)[O-])c1` (stereo unspecified): the TGI in assay [1], in assay [9], in assay [10], in assay [3], in assay [4] and in [5] was greater than 100 µM each time. The TGI in assay [6], in [7] and in [8] was greater than 100 µM in each case.
`N/N=C1/C(=N/O)CCc2nonc21`: the TGI in assay [1], in assay [9], in assay [10], in assay [3], in [4] and in assay [5] was greater than 100 µM each time. The TGI in assay [6], in assay [7] and in assay [8] was greater than 100 µM throughout.
`CC1CCc2c(sc3ncnc(N/N=C/c4ccc(Cl)c(Cl)c4)c23)C1` (stereo unspecified): the TGI in [1] was 58 µM; in assay [9], 41.6 µM; in assay [10] it was greater than 100 µM; in [3] it was 49.4 µM; in assay [4], 42.2 µM; in assay [5], 57.4 µM. In addition, the TGI in assay [6] is greater than 100 µM; in assay [7] it was 74.3 µM; in assay [8] it was 20 µM.
In the case of `CC(=O)NC1=C(C)C(=O)c2c(nc3n2CCC3O)C1=O` (stereo unspecified), the TGI in assay [1] was greater than 100 µM; in [9], 39.3 µM; in assay [10] it was 37.5 µM; in assay [3] it was 63.4 µM; in assay [4], greater than 100 µM; in assay [5], greater than 46.1 µM. Besides, the TGI in [6], in assay [7] and in assay [8] was greater than 100 µM throughout.
With `N=S(=O)(c1ccccc1)c1ccccc1[N+](=O)[O-]` (stereo unspecified), the TGI in assay [1], in assay [9], in assay [10], in [3], in [4] and in [5] was greater than 100 µM in each case. Also, the TGI in [6], in assay [7] and in [8] was greater than 100 µM throughout.
For the compound `CCNC(=O)/C=C/CCC#Cc1ccc(-c2ccc(-c3cccs3)s2)s1`, the TGI in assay [1], in assay [9], in assay [10], in assay [3], in assay [4] and in assay [5] was greater than 100 µM in each case. Also, the TGI in assay [6], in assay [7] and in [8] was greater than 100 µM in each case.
